One compound from patent US20250332265A1, “PSMA TARGETED CONJUGATE COMPOUNDS AND USES THEREOF” (priority 2021, published 2025) can be followed below.

Data set [1] addresses T1, PSMA (Homo sapiens, UniProt Q04609).
T1 construct: expressed in transfected cells; host or cells: PC3pip cells (PC3 retrovirally transduced with PSMA), from Dr. Michel Sadelain, MSKCC
The data set is described as follows: Competition binding studies, Example 2. The protocol: PC3pip cells ([…]) was suspended in 200 μL of 50 mM Tris buffer, pH 7.5. The cells were incubated at 37° C. with different concentrations of PSMA-1-MMAE-IR700 or ZJ24 in the presence of 12 nM of 3H-ZJ24 for 1 h. The cells were then washed 3 times with cold PBS and cell-associated radioactivity was measured by scintillation counting. The concentration required to inhibit 50% of the binding (IC50) was determined by GraphPad Prism 3.0. Studies were performed in triplicate.

Data set [2] relates to PSMA-positive PC3pip cells. Briefly: In vitro uptake studies, Example 2, PC3pip. It counts as cell-based, human. The conditions noted are these: 50 nM. As for the experimental part:
(§1) Enzymatic cleavage study of PSMA-1-MMAE-IR700 was performed as previously described. PSMA-1-MMAE-IR700 was incubated with activated human liver cathespin (Anthens Research and Technology, Anthens, GA) at 37° C. At different incubation time, 40 μL of the solution was placed into tubes loaded with 1 μL of 1 mM E64 protease inhibitor. The mixture was vortexed and then stored at −80° C. for future HPLC analysis. Studies were performed in triplicate. In vitro cellular uptake studies cells were plated on coverslips at about 60-70% confluency. Twenty-four hours later, cells were incubated with 50 nM of PSMA-1-MMAE-IR700. After incubation for various times (15 min, 30 min, 1 h and 4 h), cells were washed twice with cold RPMI 1640, fixed with 4% paraformaldehyde and counterstained with 4′,6-diamidino-2-phenylindole (DAPI). Images were taken using a Leica DM4000B fluorescence microscope (Leica Biosystems, Buffalo Gove, IL) at 40×. Blocking experiments were performed by co-incubation of cells with 50 nM of PSMA-1-MMAE-IR700 and 100× of PSMA-1 ligand. Studies were performed in triplicate.

Data set [3] deals with T2, human liver cathespin (Homo sapiens, UniProt P07858).
T2 construct: purchased Anthens Research and Technology, Anthens, GA; host or cells: human liver (tissue-derived enzyme)
The data set is described as follows: Cathepsin cleavage studies, Example 2. Particulars: 37° C., HPLC. It counts as in vitro ADME. The protocol:
as §1

For data set [4], the system named is PSMA-negative PC3flu cells. The data set is described as follows: In vitro cytotoxicity studies (CellTiter 96) with or without 690 nm light, PC3flu. In kind it is cell-based, human. The protocol: PC3pip and PC3flu cells were plated at 3,000 cells/well in 96-well plates. Twenty-four hours later, drugs (PSMA-1-MMAE-IR700 or PSMA-1-IR700) of different concentrations were added. After incubation at 37° C. in the dark for 24 h, cell viability was determined by CellTiter 96© aqueous one solution cell proliferation assay using absorbance at 490 nm (Promega Biotech, Madison, […]). The concentration required to inhibit 50% of cell growth (IC50) was determined by GraphPad Prism 3.0. To test the cytotoxicity of PSMA-1-MMAE-TR700 with light irradiation, drugs at a final concentration of 5 nM were added to cells and incubated in the dark for 24 h. Cells were then washed 3 times with RMPI 1640 and then irradiated with 690 nm light (L690-66-60, Marubeni America Co, New York, NY). Cells were incubated in the dark for another 24 h. Cell viability was then determined by CellTiter 96© aqueous one solution cell proliferation assay (Promega Biotech, Madison, […]). The coefficient drug interaction (CDI) was calculated as follows: CDI=AB/(A×B), where AB is the ratio of the absorbance of combination treatment groups (PSMA-1-MMAE-IR700 with light irradiation) to the absorbance of control groups; A or B is the absorbance of single treatment group (PSMA-1-MMAE-IR700 without light or PSMA-1-IR700 with light irradiation) to the absorbance of control groups. […]

A short description of data set [5]: Stability in mouse plasma. In kind it is in vitro ADME. The text has this: To synthesize PSMA-1-MMAE-IR700 (FIG. 6A), we used a self-immolative cathespsin cleavable Vc linker to conjugate MMAE to PSMA-1-Cys-C6-Lys. IR700 was conjugated to the PSMA-1 ligand through reaction of the Lys amine (—NH2) with NHS ester as no IR700 release is required for light activation. […] Degradation of PSMA-1-MMAE-IR700 led to release of free MMAE.

The subject of data set [6] is PSMA-negative PC3flu cells. Briefly: In vitro uptake studies, Example 2, PC3flu. It counts as cell-based, human. The conditions noted are these: 50 nM. As for the experimental part:
as §1

Data set [7] deals with PC3pip tumors. The data set is described as follows: Immunofluorescent detection of apoptosis (caspase-3, H&E). In kind it is in vivo, mice. Particulars: single dose, four days after the treatment. The source says: Animals bearing PC3pip tumors were divided into 7 groups: (1) mice receiving PBS; (2) mice receiving 100 nmol/kg PSMA-1-MMAE-IR700 with PDT; (3) mice receiving equal doses of PSMA-1-MMAE-IR700 to group 2, but not receiving PDT; (4) Mice receiving equal doses of PSMA-1-IR700 to group 2 with PDT treatment; (5) Mice receiving equal doses of PSMA-1-IR700 to group 2 without PDT; (6) mice receiving equal dose of PSMA-1-IR700 to group 2+free MMAE with PDT (MMAE normalized to that delivered by PSMA-1-MMAE-IR700); and (7) mice receiving equal dose of PSMA-1-IR700 to group 2+free MMAE without PDT. Animals were treated with one single dose and were sacrificed at 4-day post treatment. Tumors were snap-frozen in OCT, cut into 10 μm thick sections and fixed on slides. Induction of apoptosis by the treatment was determined by rabbit polyclonal anti-Caspase-3 antibody (Abcam, Cambridge, UK). A goat anti-rabbit polyclonal antibody labeled by Alexa Fluor-594 was used as secondary antibody (Abcam, Cambridge, UK). The presence of apoptosis was determined by fluorescence images under Leica DM4000B fluorescence microscope at 10×. H&E staining of tumor tissues was performed in adjacent sections to check the histology of the tumors. Experiments were repeated in 5 mice.

T1 sequence (Q04609 whole entry): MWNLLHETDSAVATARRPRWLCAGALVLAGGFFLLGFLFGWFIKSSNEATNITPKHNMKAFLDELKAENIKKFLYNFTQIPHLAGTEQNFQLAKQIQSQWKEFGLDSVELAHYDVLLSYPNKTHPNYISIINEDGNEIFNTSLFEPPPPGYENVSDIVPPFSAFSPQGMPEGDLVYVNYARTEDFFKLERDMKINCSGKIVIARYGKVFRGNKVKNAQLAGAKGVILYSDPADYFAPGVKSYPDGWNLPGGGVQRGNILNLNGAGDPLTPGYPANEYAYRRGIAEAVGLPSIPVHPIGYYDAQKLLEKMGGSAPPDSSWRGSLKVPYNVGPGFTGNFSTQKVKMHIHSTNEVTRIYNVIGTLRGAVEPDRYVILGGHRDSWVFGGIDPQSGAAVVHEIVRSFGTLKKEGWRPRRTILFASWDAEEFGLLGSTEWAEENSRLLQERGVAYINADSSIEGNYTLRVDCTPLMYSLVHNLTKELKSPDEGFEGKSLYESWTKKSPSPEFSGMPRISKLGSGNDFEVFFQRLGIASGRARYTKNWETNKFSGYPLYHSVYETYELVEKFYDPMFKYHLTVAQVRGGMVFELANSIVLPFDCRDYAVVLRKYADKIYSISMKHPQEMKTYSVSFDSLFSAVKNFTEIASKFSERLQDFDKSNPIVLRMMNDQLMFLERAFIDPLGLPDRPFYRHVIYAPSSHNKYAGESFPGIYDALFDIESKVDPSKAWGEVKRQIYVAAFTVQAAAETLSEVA

As to `CC[C@H](C)[C@@H]([C@@H](CC(=O)N1CCC[C@H]1[C@H](OC)[C@@H](C)C(=O)N[C@H](C)[C@@H](O)c1ccccc1)OC)N(C)C(=O)[C@@H](NC(=O)[C@H](C(C)C)N(C)C(=O)OCc1ccc(NC(=O)[C@H](CCCNC(N)=O)NC(=O)[C@@H](NC(=O)CCCCCN2C(=O)CC(SC[C@H](NC(=O)[C@H](CCC(=O)O)NC(=O)[C@H](CCC(=O)O)NC(=O)[C@H](CCC(=O)O)NC(=O)CCCCCNC(=O)[C@H]3CC[C@H](CNC(=O)CC[C@H](NC(=O)N[C@@H](CCC(=O)O)C(=O)O)C(=O)O)CC3)C(=O)NCCCCCC(=O)N[C@@H](CCCCNC(=O)CCCCCNC(=O)OCCCOc3cccc4c5n6c(c34)=NC3=NC(=Nc4c7ccccc7c(n4[Si]6(O[Si](C)(C)CCC[N+](CCCS(=O)(=O)[O-])(CCCS(=O)(=O)O)CCCS(=O)(=O)O)O[Si](C)(C)CCC[N+](CCCS(=O)(=O)[O-])(CCCS(=O)(=O)O)CCCS(=O)(=O)O)N=C4N=C(N=5)c5ccccc54)c4ccccc43)C(N)=O)C2=O)C(C)C)cc1)C(C)C` (stereo partly drawn) [PSMA-1-MMAE-IR700], in data set [1], the “binding relative to ZJ24” value was 4.4 fold. Moreover, the “fluorescence signal (uptake) in PC3pip cells” value in data set [2] is reported as “observed as early as 15 min”. The “fluorescence signal in PC3pip cells with 100× of PSMA-1 ligand” value in data set [2] (co-incubation) is given as “completely blocked”. In data set [3], the “degradation in the presence of cathepsin” value is listed as “degraded rapidly”. In addition, the “cell killing in PC3flu cells” value in data set [4] (5 nM, with or without light) is given as “no effective cell killing”. For the same compound, the “IC50 dark cytotoxicity, PC3flu cells” value in data set [4] (24 h in the dark, no light) is “no IC50 value was obtained”. Further, the half-life (commonly how long it takes for the measured level to halve) in data set [5] was 17.2 ± 2.8 h. In addition, the “fluorescence signal (uptake) in PC3flu cells” value in data set [6] was “no fluorescence signal was observed”. Also, the “apoptosis / necrotic damage in tumors, with PDT” value in data set [7] is “most aggressive necrotic damage and apoptosis”.
